Data published in patent US20040115790A1, “Method for production of secreted proteins in fungi” (priority 2001, published 2004).

What was measured:
[1] = tested on: T. reesei Rut-C30; assay: Synthesis and secretion of labelled CBHI (2D gel, phosphorimager) in treated T. reesei cultures; format: cell-based, Trichoderma reesei; details: for CBHI synthesis rate / CBHI secretion rate: percentage of non-treated control cultures; for CBHI secretion rate: production into culture medium; for Minimum secretion time of CBHI: untreated cells 11 min
Description: Proteins were metabolically labelled with ^35S-methionine using the methods described in (Pakula et al. 2000). The preparation of the samples and analysis of the labelled proteins were carried out essentially as in (Pakula et al. 2000). The labelling experiment was started after 10 min of addition of DTT or A23187 or after 15 min of addition of BFA. 1 mCi of [^35S]-methionine (Amersham S J 1015, in vivo cell labelling grade, 1000 Ci mmol^−1, 10 μCi μl^−1) was added to a 50 ml aliquot of the cultivation. Untreated cultures were labelled in parallel and in a similar manner. Samples of 2 ml were collected during a time course. Labelled total protein in cell extracts and culture supernatant was measured using scintillation counting of TCA insoluble material in the samples, and labelled specific proteins (e.g. CBHI) were analysed using 2D gel electrophoresis, and the proteins were quantified using a phosphorimager (Molecular Dynamics). The rates of protein synthesis and secretion, and the average synthesis time and minimum secretion time were determined as described in Pakula et al. 2000.
The effect of the treatments on the synthesis of extracellular proteins, specifically, and on their transport was studied using the major cellulase produced by the fungus, cellobiohydrolase I (CBHI), as a model protein. […] The effect of the treatment with the ionophore A23187 on protein transport was less pronounced. Formation of the full pI pattern of CBHI was delayed by 15-20 minutes compared to the control cells, and CBHI with full pattern of the pI forms was secreted into the culture medium but with a delay.
The labelled CBHI from samples of cell extract and culture supernatant at different time points of the labelling experiment was analysed in 2D gels and quantified using a phosphorimager (Molecular Dynamics). Parameters, such as the synthesis and secretion rate of CBHI (the amount of labelled protein produced per time unit) as well as the average synthesis time and the minimum secretion time of CBHI, were determined (for the method see Pakula et al. 2000). The quantification of the labelled CBHI during the labelling experiment is shown in FIG. 3, and the deduced parameters describing the synthesis and secretion of CBHI in these conditions are summarised in the Table 1. The average synthesis time of full-length CBHI was not affected in the DTT and BFA treated cultures, being in accordance with the result that total protein synthesis is not affected by these treatments (see above).

[2] = tested on: T. reesei Rut-C30; assay: Northern analysis of transcript levels in treated T. reesei cultures; details: for Expression of the short form of hac1 mRNA: normalised with total hac1 signal
Description: T. reesei strain Rut-C30 (Montenecourt & Eveleigh, 1979) was cultivated on minimal medium ((H4)2SO4 7.6 g l^−1, KH2PO4 15.0 g l^−1, MgSO4.7H2O 0.5 g l^−1, CaCl2.H2O 0.2 g l^−1, CoCl2 3.7 mg l^−1, FeSO4.7H2O 5 mg l^−1, ZnSO4.7H2O 1.4 mg l^−1, MnSO4.7H2O 1.6 mg l^−1, pH adjusted to 5.2 with KOH) that contained lactose 20 g l^−1 as a carbon source. Spore suspension with 2×10^7 spores (stored in −80° C. in 20% glycerol) was inoculated into 200 ml of the medium, grown in shake flasks at 28° C. with shaking at 210 rpm. After 4 days of cultivation the cultures were diluted 1/10 into fresh medium, grown further for 24 h, and treated either with 10 mM dithiothreitol (DTT), 50 μg/ml brefeldin A (BFA) or 5 μM Ca^2+-ionophore A23187. A corresponding volume of the solvent of the stock solution was added into the untreated control cultures (0.2% and 0.5% DMSO for the control cultures for A23187 and BFA treatment, respectively, and double distilled water for the control for DTT treatment).
For the Northern analysis mycelial samples were collected from cultures treated with DTT, BFA or A23187 and from the untreated control cultures after 0, 15, 30, 60, 90, 120, 240 and 360 minutes of the treatment. The first sample (the time point 0 min was withdrawn immediately before addition of DTT, BFA or A23187). The mycelium was filtered, washed with equal volume of 0.7% NaCl, frozen immediately in liquid nitrogen, and stored at −80° C. Total RNA was isolated using the Trizol™ Reagent (Gibco BRL) essentially according to manufacturer's instructions. Northern blotting and hybridisation was carried out according to standard procedures (Sambrook et al). Full-length cDNA of the genes were used as probes.
Northern analysis of the samples collected during the treatment with A23187, DTT or BFA was carried out to study the effect of the treatments at transcriptional level.

[3] = tested on: T. reesei Rut-C30; assay: Metabolic labelling (35S-methionine): total protein synthesis and secretion in treated T. reesei cultures; format: cell-based, Trichoderma reesei; details: percentage of non-treated control cultures, 5 μM A23187, 50 μg/ml BFA or 10 mM DTT; for Total protein secretion rate: TCA insoluble radioactivity in culture supernatant
[4] = tested on: A. niger AB4.1; assay: Northern analysis of transcript levels in DTT treated A. niger cultures; format: cell-based, Aspergillus niger; details: 20 mM DTT
Description: The Aspergillus niger strains used in the experiments were AB4.1 (van Hartingsveldt et al., 1987) and AS1.1 (Ngiam et al., 2000). Spores resuspended in 0.1% Tween 20 (Sigma, UK) were used to inoculate liquid cultures to a final density of 1×10^5 spores per ml of medium. The strains were maintained on potato dextrose agar slopes (Difco, USA) with a supplement of 10 mM uridine for A. niger AB4.1. Slopes were grown at 30° C. until they had sporulated and made fresh for each experiment. ACMS/N/P medium (Archer et al., 1990) was used for all the experiments involving liquid culture. A. niger AB4.1 cultures were again supplemented with 10 mM uridine. Cultures were grown in 100 ml aliquots of medium in 250 ml conical flasks at 25° C. and 150 rpm. In the DTT stress experiments, AB4.1 cultures were grown for 44 hours before addition of 1 ml of 2M DTT solution to give a final concentration of 20 mM. […]
Total RNA was extracted from 100 mg of freeze dried, ground mycelia using the RNeasy Plant Mini Kit (Qiagen, UK) according to the manufacturer's instructions. RNA was quantified by reading absorbances at 230, 260 and 280 nm on a Uvikon 850 spectrophotometer (Kontron Instruments, UK). Ratios of over 2.0 for the 260 nm:280 nm readings were accepted as being indicative of good quality RNA. RNA quality was also assessed by running samples on 7% formaldehyde gels (Sambrook et al., 1989). […]

[5] = 5 μM A23187, 50 μg/ml BFA or 10 mM DTT

SMILES	Delay of formation of the full pI pattern of CBHI compared to the control cells ([1]; 5 μM A23187)	Increase of minimum secretion time of CBHI compared to the control cultures ([1]; 5 μM A23187) [min]	Prolongation of synthesis time of CBHI compared to the control cultures ([1]; 5 μM A23187) [min]	CBHI synthesis rate [1, 5]	CBHI secretion rate [1, 5]	Average time of CBHI synthesis ([1]; untreated cells 5.7 min, 5 μM A23187, 50 μg/ml BFA or 10 mM DTT) [min]	Minimum secretion time of CBHI [1, 5] [min]	Expression of the short form of hac1 mRNA [2]	Total protein synthesis rate ([3]; TCA insoluble radioactivity in cell extracts) [%]	Total protein secretion rate [3] [%]	Expression level of sar1 and ypt1 ([2]; 10 mM DTT)	Transcript level of xyn1 and hfb2 ([2]; 10 mM DTT)	pdiA and bipA mRNA response [4]	Levels of pepA mRNA ([4]; control cultures show an increase)
CNc1ccc2oc(C[C@H]3O[C@@]4(CC[C@H]3C)O[C@H]([C@H](C)C(=O)c3ccc[nH]3)[C@H](C)C[C@H]4C)nc2c1C(=O)O [A23187]	15-20 minutes	10	3 to 4	26%	27%	9	21	transient and rather weak expression	51	23				
C[C@H]1CCC/C=C/[C@@H]2C[C@H](O)C[C@H]2[C@H](O)/C=C/C(=O)O1 [BFA, brefeldin A]				52%	4%		69	expression of the shortened, actively translated form		5				
O[C@H](CS)[C@H](O)CS (racemic) [DTT, dithiothreitol]				4-24%	no production of labelled CBHI into the culture medium was detected			expression of the shortened, actively translated form		5	not affected	reduced	rapid response	no significant increase
